Like-named read-outs stand apart in the source and are kept apart here.
Tests used:
[1] = molecular target: CYP 3A4 enzyme in human liver microsomes (Homo sapiens, UniProt P08684); test: CYP3A4 inhibition experiment in human liver microsomes
Protocol: The inhibitory effects of the test compounds on CYP 3A4T (with testosterone as substrate) and 3A4M (with midazolam as substrate) in human liver microsomes were evaluated in vitro to assess the medication safety of the compounds.
This study used the human liver microsome system and the cytochrome P450 enzyme probe substrate recommended by FDA guidelines for in vitro drug interaction studies to investigate the inhibition of the CYP 3A4 enzyme in human liver microsomes by the test compounds.
Test group (TG): Human liver microsomes were incubated with different concentrations of test compounds, NADPH (final concentration 2.00 mM) and probe substrates of different sub-enzymes (Table 4) for 5 min.
Positive control group (PC): Human liver microsomes were incubated with inhibitors (Table 4), NADPH (final concentration 2.00 mM) and probe substrates of different sub-enzymes (Table 4) for 5 min. Table 4 Probe substrates of sub-enzymes, inhibitors and incubation systems
The system was pre-incubated at 37°C for 5 min, and then 15 µL of 8 mM NADPH solution preheated at 37°C for 5-10 min to start the reaction. After incubation of the 96-well plate at 37°C for 5 min, 180 µL of acetonitrile:methanol (ACN:MeOH=1:1) solution containing internal standard (IS) was added to terminate the reaction. […] 80 µL of the supernatant was taken, added to 120 µL of ultrapure water, shaken evenly, and then detected by LC-MS/MS.
199 µL of 0.2 mg/mL HLM and 1 µL of 1 mM positive control inhibitor (ketoconazole) working solutions were taken and mixed evenly. 30 µL of the drug-containing liver microsome solution was taken and added to a 96-well plate, then 10 µL of substrate working solution (20 µM midazolam) was added, in duplicate. The system was pre-incubated at 37°C for 5 min, and then 15 µL of 8 mM NADPH solution preheated at 37°C for 5-10 min to start the reaction. After incubation of the 96-well plate at 37°C for 5 min, 180 µL of ACN:MeOH(1:1) solution containing IS was added to terminate the reaction. […] 80 µL of the supernatant was taken, added to 120 µL of ultrapure water, shaken evenly, and then detected by LC-MS/MS.
4.2.5.1 The relative activity of CYP450 sub-enzymes at different concentrations was calculated by dividing the peak area ratio (analyte peak area/internal standard peak area) of metabolites in the presence of the test sample or positive control by the peak area ratio of metabolites in the solvent control sample in the absence of the test article or positive control, according to the following formula: [formula] [formula]
4.2.5.2 Half maximal inhibitory concentration (IC50) was obtained by fitting according to the following model formula using Prism software: Y = Bottom + (Top−Bottom)/(1+10^(∧)((LogIC50−X)×HillSlope)) [formula]
X is the test sample concentration converted to logarithm (Log µM), Y is the relative activity (% of NC), Bottom and Top represent the percentage of enzyme activity at the bottom platform and top platform of the curve, respectively, and HillSlope represents the slope; to optimize the fitting effect, the use of other (nonlinear) dose-response models for fitting is not considered as a deviation from the protocol.

p53-Y220C mutant protein = molecular target: T1, p53-Y220C mutant protein (Homo sapiens, UniProt P04637, Y220C); test: In vitro DNA binding activity assay (TR-FRET); type: biochemical; details: concentration required to increase the binding activity of protein to DNA by 50%
T1 construct: The recombinant Y220C p53 DBD protein with his-tag
Outline: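 His-tagged Y220C p53 DBD was equilibrated with compound 60 min at room temperature, then biotin-DNA, anti-6His-Eu and streptavidin-d2 were added and incubated overnight in the dark. TR-FRET 665/615 nm ratio, background-corrected, was expressed as % activity versus vehicle; SC150 is the concentration raising DNA binding by 50%.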

NUGC-3 cells = test: NUGC-3 cell proliferation assay (CTG, 7 days); type: cell-based, human; details: Homo sapiens, NUGC-3, 168 h
Outline: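 Cells (200/well) in 1640 medium with 10% serum exposed to 10-point, 3-fold DMSO dilutions (duplicates) for 7 days at 37°C. Viability read by CellTiter-Glo luminescence; % inhibition normalized to DMSO and blank, IC50 from variable-slope nonlinear fit.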

[2] = CYP 3A4M IC50, human liver microsomes, midazolam as substrate
[3] = CYP 3A4T IC50, human liver microsomes, testosterone as substrate
[4] = NUGC-3 cell proliferation, 7 days, CTG, read-out: IC50

Sequence of CYP 3A4 enzyme in human liver microsomes (P08684 whole entry): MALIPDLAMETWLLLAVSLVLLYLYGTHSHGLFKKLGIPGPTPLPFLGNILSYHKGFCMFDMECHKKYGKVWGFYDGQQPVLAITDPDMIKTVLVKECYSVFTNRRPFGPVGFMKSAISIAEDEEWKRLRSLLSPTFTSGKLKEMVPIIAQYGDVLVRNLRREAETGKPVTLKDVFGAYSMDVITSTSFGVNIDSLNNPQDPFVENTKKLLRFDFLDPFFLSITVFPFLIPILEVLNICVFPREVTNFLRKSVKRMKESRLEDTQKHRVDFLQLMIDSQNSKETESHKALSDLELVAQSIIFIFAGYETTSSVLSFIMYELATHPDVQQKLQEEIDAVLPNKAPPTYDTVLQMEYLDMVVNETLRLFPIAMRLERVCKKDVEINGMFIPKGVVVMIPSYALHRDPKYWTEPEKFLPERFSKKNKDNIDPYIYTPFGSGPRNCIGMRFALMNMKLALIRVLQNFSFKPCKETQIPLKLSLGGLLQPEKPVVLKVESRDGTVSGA

SMILES	IC50 [1, 2]	IC50 [1, 3]	SC150 (p53-Y220C mutant protein)	IC50 (NUGC-3 cells; [4])	IC50 (NUGC-3 cells)
CN1CC[C@@H](Nc2cccc3c(CC(F)(F)F)c(C#CCNC(=O)c4cnn5c4CCCC5)nn23)[C@@H](F)C1 [Compound 276, N-[3-(7-{[(3S,4R)-3-fluoro-1-methylpiperidin-4-yl]amino}-3-(2,2,2-trifluoroethyl)pyrazolo[1,5-a]pyridin-2-yl)prop-2-yn-1-yl]-4,5,6,7-tetrahydropyrazolo[1,5-a]pyridine-3-carboxamide]	17.4 µM	> 30 µM	18 nM	0.856 µM	–
CCn1ccc(C(=O)NCC#Cc2nn3c(N[C@@H]4CCN(C)C[C@@H]4F)cccc3c2CC(F)(F)F)c1 [Compound 277, 1-ethyl-N-[3-(7-{[(3S,4R)-3-fluoro-1-methylpiperidin-4-yl]amino}-3-(2,2,2-trifluoroethyl)pyrazolo[1,5-a]pyridin-2-yl)prop-2-yn-1-yl]-1H-pyrrole-3-carboxylic acid amide]	12.4 µM	15.8 µM	14 nM	–	0.726 µM
Cc1cc(C(=O)NCC#Cc2nn3c(N[C@@H]4CCN(C)C[C@@H]4F)cccc3c2CC(F)(F)F)co1 [Compound 278, N-[3-(7-{[(3S,4R)-3-fluoro-1-methylpiperidin-4-yl]amino}-3-(2,2,2-trifluoroethyl)pyrazolo[1,5-a]pyridin-2-yl)prop-2-yn-1-yl]-5-methylfuran-3-carboxamide]	14.7 µM	13 µM	24 nM	1.12 µM	–
COCCn1ccc(C(=O)NCC#Cc2nn3c(N[C@@H]4CCN(C)C[C@@H]4F)cccc3c2CC(F)(F)F)c1 [Compound 279, N-[3-(7-{[(3S,4R)-3-fluoro-1-methylpiperidin-4-yl]amino}-3-(2,2,2-trifluoroethyl)pyrazolo[1,5-a]pyridin-2-yl)prop-2-yn-1-yl]-1-(methoxyethyl)-1H-pyrrole-3-carboxamide]	18 µM	24.3 µM	9 nM	0.672 µM	–
CN1CC[C@@H](Nc2cccc3c(CC(F)(F)F)c(C#CCNC(=O)c4cc5n(c4)CCOC5)nn23)[C@@H](F)C1 [Compound 281, N-[3-(7-{[(3S,4R)-3-fluoro-1-methylpiperidin-4-yl]amino}-3-(2,2,2-trifluoroethyl)pyrazolo[1,5-a]pyridin-2-yl)prop-2-yn-1-yl]-3,4-dihydro-1H-pyrrolo[2,1-c][1,4]oxazine-7-carboxamide]	> 30 µM	> 30 µM	13 nM	0.413 µM	–
CN1CC[C@@H](Nc2cccc3c(CC(F)(F)F)c(C#CCNC(=O)c4ncn(C(C)(C)C)c4N)nn23)[C@@H](F)C1 [Compound 283, 5-amino-1-tert-butyl-N [3-(7-{[(3S,4R)-3-fluoro-1-methylpiperidin-4-yl]amino}-3-(2,2,2-trifluoroethyl)pyrazolo[1,5-a]pyridin-2-yl)prop-2-yn-1-yl]-1H-pyrazole-4-carboxamide]	> 30 µM	18.1 µM	19 nM	–	1.64 µM
CN1CC[C@@H](Nc2cccc3c(CC(F)(F)F)c(C#CCNC(=O)c4cnn(C56CC(C5)C6)c4N)nn23)[C@@H](F)C1 [Compound 289, 5-amino-1-(dicyclo[1.1.1]pent-1-yl)-N-[3-(7-{[(3S,4R)-3-fluoro-1-methylpiperidin-4-yl]amino}-3-(2,2,2-trifluoroethyl)pyrazolo[1,5-a]pyridin-2-yl)prop-2-yn-1-yl]-1H-pyrazole-4-carboxamide]	12.9 µM	13.2 µM	5 nM	–	0.182 µM
CCN1CC[C@@H](Nc2cccc3c(CC(F)(F)F)c(C#CCNC(=O)c4cnn(C(C)(C)C)c4N)nn23)[C@@H](F)C1 [Compound 353, 5-amino-1-tert-butyl-N-[3-(7-{[(3S,4R)-1-ethyl-3-fluoropiperidin-4-yl]amino}-3-(2,2,2-trifluoroethyl)pyrazolo[1,5-a]pyridin-2-yl)prop-2-yn-1-yl]-1H-pyrazole-4-carboxamide]	22.3 µM	26.5 µM	4 nM	0.152 µM	–
CC(C)N1CC[C@@H](Nc2cccc3c(CC(F)(F)F)c(C#CCNC(=O)c4cnn(C(C)(C)C)c4N)nn23)[C@@H](F)C1 [Compound 354]	15.6 µM	18.5 µM	3 nM	–	0.177 µM

From patent EP4737449A1 (Changchun Genescience Pharmaceutical Co., Ltd., priority 2023, dated 2025)
